Results from patent publication US20220331303A1, “USE OF AN OREXIN 2 RECEPTOR AGONIST FOR THE TREATMENT OF EXCESSIVE SLEEPINESS” (Takeda Pharmaceutical Company Limited, priority 2019, published 2022).
Several values for one entry are separate records, joined by “and”; a condition that tells them apart may be missing. Equal entries are not always repeated.

Tested on: sleep-deprived healthy volunteers
Assay: Maintenance of wakefulness test (MWT) in sleep-deprived healthy volunteers
Assay type: in vivo, human
Settings: for Stage N2 Duration (MWT), LS Mean Difference vs placebo / Total Microsleeps (MWT), LS Mean / Total Microsleeps (MWT), LS Mean Difference vs placebo / Duration Total Microsleeps (MWT), LS Mean / Duration Total Microsleeps (MWT), LS Mean Difference vs placebo / Latency to Sleep Onset on MWT, LS Mean / Latency to Sleep Onset on MWT, LS Mean Difference vs placebo / Stage N1 Duration (MWT), LS Mean / Stage N1 Duration (MWT), LS Mean Difference vs placebo / Stage N2 Duration (MWT), LS Mean: Compound A 112 mg (HD)
Procedure: The primary objective of this study was to determine the effect of Compound A (methyl (2R,3S)-3-((methylsulfonyl)amino)-2-(((cis-4-phenylcyclohexyl)oxy)methyl)piperidine-1-carboxylate), 44 mg (low dose [LD]) and 112 mg (high dose [HD]), after a single IV dose (compared to placebo) on promoting wakefulness as measured by sleep latency on the MWT (performed at approximately 2, 4, 6, and 8 hours post-dosing starting at approximately 1:00 AM and then at approximate times of 3:00, 5:00, and 7:00 AM) in sleep-deprived healthy volunteers.
This was a phase 1b, single-center, randomized, double-blind, double-dummy, placebo- and active-controlled, 4-period Williams design crossover study to evaluate the PK, PD, and safety of Compound A in sleep-deprived healthy volunteers. Compound A was administered as a 9-hour IV infusion.
Healthy adult male subjects aged 18 to 40 years, inclusive, who satisfied the inclusion and exclusion criteria were enrolled in the trial. On Day 1 of treatment period 1, eligible subjects were equally randomized to 4 treatment sequence groups (sequence 1 to 4) which defined the order of administration for Compound A LD, Compound A HD (both delivered as a 9-hour IV infusion), modafinil 300 mg, and placebo.
During the day before dosing on Day 1, participants were administered the KSS at scheduled timepoints. A practice MWT session was performed on Day 1 treatment period 1 (only once during the entire study) to familiarize subjects with the procedures. Study drug was administered in the clinic in the evening on Day 1 of each treatment period. Subjects underwent the MWT and KSS at specified timepoints after the start of the infusion. Subjects were required to stay awake between the MWT tests. Following completion of the IV infusion on Day 2, subjects underwent an additional MWT test. When the final MWT test and cognitive testing were completed, subjects were allowed to sleep (recovery sleep) for approximately 6 hours. PSG recording was collected during this time. Subjects were discharged from the unit after completion on Day 2 with continuing actigraphy upon discharge (to begin on Day −6 before the next treatment period). The interval between each subsequent treatment period was at least 7 days to ensure that the subject's circadian rhythm had returned to a normal cycle. Subject's vital signs, including BP, were monitored during the dosing and testing period. Blood samples for determination of Compound A plasma concentrations were collected at specified timepoints on Days 1 and 2 of each treatment period. Subjects completed the Columbia-Suicide Severity Rating Scale (C-SSRS) during screening, before study drug administration, and before discharge on Day 2 of each treatment period.
Primary endpoint: Latency for each MWT, defined as time to sleep onset.

[1] = average overall during infusion
[2] = Compound A 112 mg, after the end of infusion (1 hour post end of infusion)
[3] = HD: Compound A 112 mg, 2 HOURS POST INFUSION START
[4] = HD: Compound A 112 mg, 4 HOURS POST INFUSION START
[5] = HD: Compound A 112 mg, 6 HOURS POST INFUSION START
[6] = HD: Compound A 112 mg, 8 HOURS POST INFUSION START
[7] = HD: Compound A 112 mg, Average Overall, MWT during infusion
[8] = LD: Compound A 44 mg, 2 HOURS POST INFUSION START
[9] = LD: Compound A 44 mg, 4 HOURS POST INFUSION START
[10] = LD: Compound A 44 mg, 6 HOURS POST INFUSION START
[11] = LD: Compound A 44 mg, 8 HOURS POST INFUSION START
[12] = LD: Compound A 44 mg, Average Overall, MWT during infusion

Compound: COC(=O)N1CCC[C@H](NS(C)(=O)=O)[C@@H]1CO[C@H]1CC[C@@H](c2ccccc2)CC1 [Compound A, methyl (2R,3S)-3-((methylsulfonyl)amino)-2-(((cis-4-phenylcyclohexyl)oxy)methyl)piperidine-1-carboxylate]
- Stage N2 Duration (MWT), LS Mean Difference vs placebo (4 hours post infusion start): -1.15 min
- Total Microsleeps (MWT), LS Mean (4 hours post infusion start): 0.00
- Total Microsleeps (MWT), LS Mean Difference vs placebo (4 hours post infusion start): −2.35
- Duration Total Microsleeps (MWT), LS Mean (6 hours post infusion start): 0.43 s
- Duration Total Microsleeps (MWT), LS Mean Difference vs placebo (6 hours post infusion start): -6.97 s
- Latency to Sleep Onset on MWT, LS Mean (6 hours post infusion start): 38.36 min
- Latency to Sleep Onset on MWT, LS Mean Difference vs placebo (6 hours post infusion start): 32.21 min
- Stage N1 Duration (MWT), LS Mean (6 hours post infusion start): 0.07 min
- Stage N1 Duration (MWT), LS Mean Difference vs placebo (6 hours post infusion start): -1.08 min
- Stage N2 Duration (MWT), LS Mean (6 hours post infusion start): 0.06 min
- Stage N2 Duration (MWT), LS Mean Difference vs placebo (6 hours post infusion start): -0.44 min
- Total Microsleeps (MWT), LS Mean (6 hours post infusion start): 0.11
- Total Microsleeps (MWT), LS Mean Difference vs placebo (6 hours post infusion start): −1.14
- Duration Total Microsleeps (MWT), LS Mean (8 hours post infusion start): 5.21 s
- Duration Total Microsleeps (MWT), LS Mean Difference vs placebo (8 hours post infusion start): -2.59 s
- Latency to Sleep Onset on MWT, LS Mean (8 hours post infusion start): 36.86 min
- Latency to Sleep Onset on MWT, LS Mean Difference vs placebo (8 hours post infusion start): 33.33 min
- Stage N1 Duration (MWT), LS Mean (8 hours post infusion start): 0.18 min
- Stage N1 Duration (MWT), LS Mean Difference vs placebo (8 hours post infusion start): -0.97 min
- Stage N2 Duration (MWT), LS Mean (8 hours post infusion start): 0.28 min
- Stage N2 Duration (MWT), LS Mean Difference vs placebo (8 hours post infusion start): -0.82 min
- Total Microsleeps (MWT), LS Mean (8 hours post infusion start): 1.11
- Total Microsleeps (MWT), LS Mean Difference vs placebo (8 hours post infusion start): −0.19
- Duration Total Microsleeps (MWT), LS Mean [1]: 1.40 s
- Duration Total Microsleeps (MWT), LS Mean Difference vs placebo [1]: -7.68 s
- Latency to Sleep Onset on MWT, LS Mean [1]: 38.82 min and 38.82 (1.955) min
- Latency to Sleep Onset on MWT, LS Mean Difference vs placebo [1]: 30.21 min and 30.2 min and 30.21 (2.682) min
- Stage N1 Duration (MWT), LS Mean [1]: 0.04 min
- Stage N1 Duration (MWT), LS Mean Difference vs placebo [1]: -1.23 min
- Stage N2 Duration (MWT), LS Mean [1]: 0.09 min
- Stage N2 Duration (MWT), LS Mean Difference vs placebo [1]: -0.81 min
- Total Microsleeps (MWT), LS Mean [1]: 0.31
- Latency to Sleep Onset on MWT, LS Mean (SE) [2]: 2.36 (2.241)
- Latency to Sleep Onset on MWT, LS Mean Difference vs placebo, Estimate (SE) [2]: −2.29 (2.752)
- Total Sleep Time LS Mean [3]: 0.02 min
- Total Sleep Time LS Mean Difference vs Placebo Estimate [3]: -2.71 min
- Total Wake Time LS Mean [3]: 39.89 min
- Total Wake Time LS Mean Difference vs Placebo Estimate [3]: 22.17 min
- Total Sleep Time LS Mean [4]: -0.01 min
- Total Sleep Time LS Mean Difference vs Placebo Estimate [4]: -3.16 min
- Total Wake Time LS Mean [4]: 40.08 min
- Total Wake Time LS Mean Difference vs Placebo Estimate [4]: 30.03 min
- Total Sleep Time LS Mean [5]: 0.21 min
- Total Sleep Time LS Mean Difference vs Placebo Estimate [5]: -2.01 min
- Total Wake Time LS Mean [5]: 38.86 min
- Total Wake Time LS Mean Difference vs Placebo Estimate [5]: 32.44 min
- Total Sleep Time LS Mean [6]: 0.57 min
- Total Sleep Time LS Mean Difference vs Placebo Estimate [6]: -2.35 min
- Total Wake Time LS Mean [6]: 37.36 min
- Total Wake Time LS Mean Difference vs Placebo Estimate [6]: 33.71 min
- Total Sleep Time LS Mean [7]: 0.20 min
- Total Sleep Time LS Mean Difference vs Placebo Estimate [7]: -2.56 min
- Total Wake Time LS Mean [7]: 39.05 min
- Total Wake Time LS Mean Difference vs Placebo Estimate [7]: 29.59 min
- Total Sleep Time LS Mean [8]: 0.47 min
- Total Sleep Time LS Mean Difference vs Placebo Estimate [8]: -2.26 min
- Total Wake Time LS Mean [8]: 35.73 min
- Total Wake Time LS Mean Difference vs Placebo Estimate [8]: 18.00 min
- Total Sleep Time LS Mean [9]: 1.27 min
- Total Sleep Time LS Mean Difference vs Placebo Estimate [9]: -1.88 min
- Total Wake Time LS Mean [9]: 32.42 min
- Total Wake Time LS Mean Difference vs Placebo Estimate [9]: 22.37 min
- Total Sleep Time LS Mean [10]: 4.69 min
- Total Sleep Time LS Mean Difference vs Placebo Estimate [10]: 2.47 min
- Total Wake Time LS Mean [10]: 21.78 min
- Total Wake Time LS Mean Difference vs Placebo Estimate [10]: 15.36 min
- Total Sleep Time LS Mean [11]: 5.63 min
- Total Sleep Time LS Mean Difference vs Placebo Estimate [11]: 2.71 min
- Total Wake Time LS Mean [11]: 13.37 min
- Total Wake Time LS Mean Difference vs Placebo Estimate [11]: 9.72 min
- Total Sleep Time LS Mean [12]: 3.02 min
- Total Sleep Time LS Mean Difference vs Placebo Estimate [12]: 0.26 min
- Total Wake Time LS Mean [12]: 25.83 min
- Total Wake Time LS Mean Difference vs Placebo Estimate [12]: 16.36 min
- Compound A plasma concentration at which magnitude of wake-promoting effects appeared to diminish over time (sleep latency vs plasma concentration by MWT session (FIG. 8)): less than 200 ng/mL
